Source: publication PMC7717710, “Synthesis, computational studies and assessment of in vitro inhibitory activity of umbelliferon-based compounds against tumour-associated carbonic anhydrase isoforms IX and XII” (Journal of Enzyme Inhibition and Medicinal Chemistry, 2020)
pKi: −log10 of the molar value. Read-outs that look alike come from different tables or passages of the source.

Key:
[1] = biological target: T1, hCA I (Homo sapiens, UniProt P00915); test: stopped-flow CO2 hydrase assay, hCA I; assay type: biochemical; settings: recombinant hCA I; stopped-flow CO2 hydration; 15 min preincubation; errors ± 10%, 3 assays; read-out: Inhibition data (Ki) hCA I
T1 construct: made in house
T1 sequence (P00915 whole entry): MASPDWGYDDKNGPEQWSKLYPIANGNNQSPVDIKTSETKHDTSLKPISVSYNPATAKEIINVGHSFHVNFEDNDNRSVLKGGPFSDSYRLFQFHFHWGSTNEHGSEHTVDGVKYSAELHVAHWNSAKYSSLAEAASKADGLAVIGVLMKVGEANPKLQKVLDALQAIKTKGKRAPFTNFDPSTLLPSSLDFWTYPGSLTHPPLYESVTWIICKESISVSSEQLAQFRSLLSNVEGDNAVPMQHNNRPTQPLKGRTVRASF
Protocol: (§1) An applied photophysics stopped-flow instrument has been used for assaying the CA catalysed CO2 hydration activity. Phenol red (at a concentration of 0.2 mM) has been used as an indicator, working at the absorbance maximum of 557 nm, with 10–20 mM Hepes (pH 7.5) or Tris (pH 8.3) as buffers, and 20 mM Na2SO4 or 20 mM NaClO4 (for maintaining constant the ionic strength), following the initial rates of the CA-catalysed CO2 hydration reaction for a period of 10–100 s. The CO2 concentrations ranged from 1.7 to 17 mM for the determination of the kinetic parameters and inhibition constants. For each inhibitor, at least six traces of the initial 5-10% of the reaction have been used for determining the initial velocity. The uncatalyzed rates were determined in the same manner and subtracted from the total observed rates. Stock solutions of inhibitor (10 mM) were prepared in distilled-deionized water and dilutions up to 0.01 nM were done thereafter with distilled-deionized water. Inhibitor and enzyme solutions were preincubated together for 15 min at room temperature prior to assay to allow for the formation of the E–I complex. The inhibition constants were obtained by non-linear least-squares methods using PRISM 3, as reported earlier and represent the mean from at least three different determinations. CA isoforms were recombinant ones obtained as reported earlier by this group.
(§2) This small series of coumarin derivatives 7–11, 15–17 were subjected to the stopped-flow CO2 hydrase assays to evaluate the binding affinity against the tumour-associated hCA IX and XII over ubiquitous isoforms hCA I and II.

[2] = biological target: T2, hCA II (Homo sapiens, UniProt P00918); test: stopped-flow CO2 hydrase assay, hCA II; assay type: biochemical; settings: recombinant hCA II; stopped-flow CO2 hydration; 15 min preincubation; errors ± 10%, 3 assays; read-out: Inhibition data (Ki) hCA II
T2 construct: made in house
Protocol: as §1, §2

[3] = biological target: T3, hCA IX (Homo sapiens, UniProt Q16790); test: stopped-flow CO2 hydrase assay, hCA IX; assay type: biochemical; settings: recombinant hCA IX; stopped-flow CO2 hydration; 15 min preincubation; errors ± 10%, 3 assays; read-out: Inhibition data (Ki) hCA IX
T3 construct: made in house
Protocol: as §1, §2

[4] = biological target: T4, hCA XII (Homo sapiens, UniProt O43570); test: stopped-flow CO2 hydrase assay, hCA XII; assay type: biochemical; settings: for pKi: recombinant hCA XII, stopped-flow CO2 hydration, 15 min preincubation, errors ± 10%, 3 assays, read-out: Inhibition data (Ki) hCA XII
T4 construct: made in house
T4 sequence (O43570 25-354): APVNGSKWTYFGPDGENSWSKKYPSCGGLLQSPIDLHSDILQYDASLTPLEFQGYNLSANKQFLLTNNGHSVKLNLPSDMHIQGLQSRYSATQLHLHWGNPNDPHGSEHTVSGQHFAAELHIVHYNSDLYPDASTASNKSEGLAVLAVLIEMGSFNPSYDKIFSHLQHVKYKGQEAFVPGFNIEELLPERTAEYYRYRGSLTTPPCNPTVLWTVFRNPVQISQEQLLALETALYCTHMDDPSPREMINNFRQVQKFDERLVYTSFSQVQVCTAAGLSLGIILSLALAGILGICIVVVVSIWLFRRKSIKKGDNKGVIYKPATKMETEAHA
Protocol: as §1, §2

[5] = biological target: T1, hCA I; design: method as in PMID 29197732; settings: reference compounds; read-out: Inhibition data (Ki) hCA I; cited from earlier work
[6] = biological target: T2, hCA II; design: method as in PMID 29197732; settings: reference compounds; read-out: Inhibition data (Ki) hCA II; cited from earlier work

Compound | pKi [1] | pKi [2] | pKi [3] | fold less active/efficient towards hCA XII than parent compound 3 ([4]; ratio of Ki values versus compound 3) [fold] | pKi [4] | melting point [°C] | pKi [5] | pKi [6]
CCC(=O)c1c(O)ccc2c(-c3ccccc3)cc(=O)oc12 [compound 11, 7-Hydroxy-4-phenyl-8-propanoyl-2H-chromen-2-one] | < 5.00 | < 5.00 | 5.52 | 10 | 6.06 | 172 to 174 | – | –
Nc1ccc(-c2cc(=O)oc3c(Cl)c(O)ccc23)cc1 [compound 17, 4-(4-aminophenyl)-8-chloro-7-hydroxy-2H-chromen-2-one] | < 5.00 | < 5.00 | 6.74 | – | 7.53 | 313 to 315 | – | –
CCC(=O)Oc1ccc2c(-c3ccccc3)cc(=O)oc2c1 [compound 8, 2-Oxo-4-phenyl-2H-chromen-7-yl propionate] | < 5.00 | < 5.00 | 7.01 | – | 6.28 | 172 to 174 | – | –
O=C(Oc1ccc2c(-c3ccccc3)cc(=O)oc2c1)c1ccccc1 [compound 9, 2-Oxo-4-phenyl-2H-chromen-7-yl benzoate] | < 5.00 | < 5.00 | 7.66 | – | 6.41 | – | – | –
CC(=O)c1c(O)ccc2c(-c3ccccc3)cc(=O)oc12 [compound 10, 8-Acetyl-7-hydroxy-4-phenyl-2H-chromen-2-one] | < 5.00 | < 5.00 | 6.75 | – | 7.60 | – | – | –
O=c1cc(-c2ccc([N+](=O)[O-])cc2)c2ccc(O)c(Cl)c2o1 [compound 16, 8-Chloro-7-hydroxy-4-(4-nitrophenyl)-2H-chromen-2-one] | – | – | – | – | – | 303 to 305 | – | –
O=c1cc(-c2ccccc2)c2ccc(O)c(Cl)c2o1 [compound 15, 8-Chloro-7-hydroxy-4-phenyl-2H-chromen-2-one] | < 5.00 | < 5.00 | 6.58 | – | 7.49 | 214 to 215 | – | –
CC(=O)Oc1ccc2c(-c3ccccc3)cc(=O)oc2c1 [compound 7, 2-oxo-4-phenyl-2H-chromen-7-yl acetate] | < 5.00 | < 5.00 | 7.25 | – | 6.13 | 129 to 131 | – | –
Cc1c(O)ccc2c(-c3ccc(N)cc3)cc(=O)oc12 [compound 4, 4-(4-aminophenyl)-7-hydroxy-8-methyl-2H-chromen-2-one] | – | – | – | – | – | – | < 5.00 | < 5.00
O=c1cc(-c2ccccc2)c2ccc(O)cc2o1 [compound 3, 7-hydroxy-4-phenyl-2H-chromen-2-one] | – | – | – | – | – | – | < 5.00 | < 5.00
